Data taken from US10675303B2, “Extracellular matrix compositions for the treatment of cancer” (ADAPTIVE BIOLOGIX, INC., priority 2008, dated 2020).

How the values were obtained:
MDA435 cells = test: Tumor growth of MDA435 cells in nude mice; assay type: in vivo
Protocol: (§1) Tumor growth of B16 cells, C6 cells, or MDA435 cells in the presence or absence of ECM, and with or without cisplatin, were examined in nude mice. Cells, ECM and Cisplatin were injected simultaneously subcutaneously in the lower haunch of a nude mouse. Tumor growth was followed over time using photography, measurements of length and width, then finally by weight. FIGS. 8 and 9 show the growth of tumors from C6 cells in nude mice in the presence (FIG. 9) and absence (FIG. 8) of ECM on day 14 post-injection. FIGS. 10 and 11 show the growth of tumors from C6 cells in nude mice in the presence of ECM with cisplatin (FIG. 10) and cisplatin without ECM (FIG. 11) of ECM on day 14 post-injection.

C6 cells = test: Tumor growth of C6 cells in nude mice; assay type: in vivo; details: compared to no treatment control (FIG. 12)
Protocol: as §1

N.N.[Cl][Pt][Cl] [cisplatin]
tumor growth of MDA435 cells over 25 days (MDA435 cells; nude mice, compared to no treatment control (FIG. 14)): reduction in tumor mass to zero
tumor growth of MDA435 cells in nude mice (MDA435 cells; versus no treatment control with palpable tumors (FIGS. 13A-D)): reduced or no tumor growth
tumor growth of C6 cells over 18 days (C6 cells): no growth
